Reference: patent publication US20220339143A1, “TAK-925 FOR USE IN TREATING NARCOLEPSY” (Takeda Pharmaceutical Company Limited, priority 2019, published 2022)
“Also recorded” adds a separate entry of the source. Where two headings read alike, the source gives them in different places.

Assay: Single dose PK in healthy subjects (Cohorts 1, 2, S1 and S2), plasma
Type: in vivo, human
Experimental: This study investigates (i) the safety and tolerability of Compound A (methyl (2R,3S)-3-((methylsulfonyl)amino)-2-(((cis-4-phenylcyclohexyl)oxy)methyl)piperidine-1-carboxylate) when a single dose given as a 9 hour continuous IV infusion is administered to healthy adults, healthy elderly subjects and patients with narcolepsy type 1 (NT1); (ii) the pharmacokinetics of Compound A when a single dose given as a 9 hour continuous IV infusion is administered to healthy adults, healthy elderly subjects and patients with narcolepsy type 1; and (iii) the pharmacodynamics (PD) effects of Compound A, primarily by evaluation of the sleep latency on MWT when a single dose given as a 9 hour continuous IV infusion is administered to patients with narcolepsy type 1.
Pharmacokinetics: Concentrations of Compound A in plasma, and CSF, and pharmacokinetics parameters.
On average, the time to reach the plateau appeared to be approximately 3 to 4 hours after the start of infusion. […] After switching off the IV infusion, Compound A plasma concentrations declined rapidly and in a biphasic manner with a mean terminal disposition phase t1/2z ranging approximately from 3.4 to 5.1 hours across all doses. […] Table 5 provides a summary of plasma concentrations of Compound A after a single IV infusion in healthy subjects. Table 6 provides a summary of pharmacokinetic parameters of Compound A after a single IV infusion in healthy subjects.

[1] = 56 mg, 2 hr After End of Infusion
[2] = 112 mg single IV infusion, healthy subjects
[3] = 112 mg, 0.17 hr After End of Infusion
[4] = 134.4 mg single IV infusion, healthy subjects
[5] = 134.4 mg, 0.17 hr After End of Infusion
[6] = 180 mg single IV infusion, healthy subjects
[7] = 240 mg single IV infusion, healthy subjects
[8] = human, plasma, intravenous, 7 mg, read-out: Plasma concentration, Mean
[9] = human, plasma, intravenous, 7 mg, read-out: Plasma concentration, Median
[10] = human, plasma, intravenous, 7 mg, read-out: Plasma concentration, Minimum
[11] = human, plasma, intravenous, 7 mg, read-out: Plasma concentration, Q1

## COC(=O)N1CCC[C@H](NS(C)(=O)=O)[C@@H]1CO[C@H]1CC[C@@H](c2ccccc2)CC1 [Compound A, methyl (2R,3S)-3-((methylsulfonyl)amino)-2-(((cis-4-phenylcyclohexyl)oxy)methyl)piperidine-1-carboxylate]
[1]
  Plasma concentration, Mean: 21.70 ng/mL
  Plasma concentration, Minimum: 15.4 ng/mL
  Plasma concentration, Q1: 15.60 ng/mL
[2]
  AUCinf D Mean: 18.87 ng·h/mL/mg
  AUCinf D Median: 19.25 ng·h/mL/mg
  Cmax D Mean: 2.130 ng/mL/mg
  Cmax D Median: 2.230 ng/mL/mg
  t½z Mean: 3.788 h
  t½z Median: 3.370 h
[3]
  Plasma concentration, Maximum: 138 ng/mL
  Plasma concentration, Mean: 126.2 ng/mL
  Plasma concentration, Median: 133.0 ng/mL
  Plasma concentration, Minimum: 106 ng/mL
  Plasma concentration, Q1: 110.0 ng/mL
  Plasma concentration, Q3: 137.0 ng/mL
112 mg, Predose
  Plasma concentration, Maximum: 0.00 ng/mL
  Plasma concentration, Median: 0.000 ng/mL
  Plasma concentration, Minimum: 0.00 ng/mL
  Plasma concentration, Q1: 0.000 ng/mL
  Plasma concentration, Q3: 0.000 ng/mL
[4]
  AUCinf D Mean: 20.23 ng·h/mL/mg
  AUCinf D Median: 19.95 ng·h/mL/mg
  Cmax D Mean: 2.293 ng/mL/mg
  Cmax D Median: 2.340 ng/mL/mg
  t½z Mean: 3.943 h
  t½z Median: 3.760 h
[5]
  Plasma concentration, Maximum: 255 ng/mL
  Plasma concentration, Mean: 181.7 ng/mL
  Plasma concentration, Median: 167.5 ng/mL
  Plasma concentration, Minimum: 145 ng/mL
  Plasma concentration, Q1: 148.0 ng/mL
  Plasma concentration, Q3: 207.0 ng/mL
134.4 mg, Predose
  Plasma concentration, Maximum: 0.00 ng/mL
  Plasma concentration, Mean: 0.000 ng/mL
  Plasma concentration, Median: 0.000 ng/mL
  Plasma concentration, Minimum: 0.00 ng/mL
  Plasma concentration, Q1: 0.000 ng/mL
  Plasma concentration, Q3: 0.000 ng/mL
[6]
  AUCinf D Mean: 16.73 ng·h/mL/mg
  AUCinf D Median: 16.90 ng·h/mL/mg
  Cmax D Mean: 1.918 ng/mL/mg
  Cmax D Median: 1.990 ng/mL/mg
  t½z Mean: 3.363 h
  t½z Median: 3.225 h
[7]
  AUCinf D Mean: 19.28 ng·h/mL/mg
  AUCinf D Median: 18.45 ng·h/mL/mg
  Cmax D Mean: 2.133 ng/mL/mg
  Cmax D Median: 2.010 ng/mL/mg
  Vss Median: 99.25 L
  t½z Mean: 4.033 h
  t½z Median: 4.230 h
Doses of 7 to 240 mg, healthy adults
  dose proportionality of mean plasma systemic exposure: increased approximately dose proportionally; also recorded: exhibits linear pharmacokinetics
[8]
  concentration at 0.33 h after end of infusion: 7.34 ng/mL
  concentration at 0.5 h after end of infusion: 6.73 ng/mL
  concentration at 0.75 h after end of infusion: 5.55 ng/mL
  concentration at 1 h after end of infusion: 4.91 ng/mL
  concentration at 1.5 h after end of infusion: 4.25 ng/mL
  concentration at 3 h: 16.5 ng/mL
[9]
  concentration at 0.33 h after end of infusion: 7.16 ng/mL
  concentration at 0.5 h after end of infusion: 6.46 ng/mL
  concentration at 0.75 h after end of infusion: 5.38 ng/mL
  concentration at 1 h after end of infusion: 4.83 ng/mL
  concentration at 1.5 h after end of infusion: 4.5 ng/mL
  concentration at 3 h: 15.8 ng/mL
[10]
  concentration at 0.33 h after end of infusion: 6.28 ng/mL
  concentration at 0.5 h after end of infusion: 6.1 ng/mL
  concentration at 0.75 h after end of infusion: 5.27 ng/mL
  concentration at 1 h after end of infusion: 4.34 ng/mL
  concentration at 1.5 h after end of infusion: 3.27 ng/mL
  concentration at 3 h: 13.2 ng/mL
[11]
  concentration at 0.33 h after end of infusion: 7.12 ng/mL
  concentration at 0.5 h after end of infusion: 6.26 ng/mL
  concentration at 0.75 h after end of infusion: 5.35 ng/mL
  concentration at 1 h after end of infusion: 4.82 ng/mL
  concentration at 1.5 h after end of infusion: 4.15 ng/mL
human, plasma, intravenous, 7 mg, read-out: Plasma concentration, Q3
  concentration at 0.33 h after end of infusion: 7.26 ng/mL
human, plasma, intravenous, 7 mg, 0.5 hr, read-out: Plasma concentration, Maximum
  concentration at 0.5 h: 10.5 ng/mL
human, plasma, intravenous, 7 mg, 0.5 hr, read-out: Plasma concentration, Mean
  concentration at 0.5 h: 9.15 ng/mL
human, plasma, intravenous, 7 mg, 0.5 hr, read-out: Plasma concentration, Median
  concentration at 0.5 h: 9.54 ng/mL
human, plasma, intravenous, 7 mg, 0.5 hr, read-out: Plasma concentration, Minimum
  concentration at 0.5 h: 6.99 ng/mL
human, plasma, intravenous, 7 mg, 0.5 hr, read-out: Plasma concentration, Q1
  concentration at 0.5 hr: 7.83 ng/mL
human, plasma, intravenous, 7 mg, 0.5 hr, read-out: Plasma concentration, Q3
  concentration at 0.5 h: 10.5 ng/mL
human, plasma, intravenous, 7 mg, 1 hr, read-out: Plasma concentration, Maximum
  concentration at 1 h: 15.1 ng/mL
human, plasma, intravenous, 7 mg, 1 hr, read-out: Plasma concentration, Mean
  concentration at 1 h: 11.7 ng/mL
human, plasma, intravenous, 7 mg, 1 hr, read-out: Plasma concentration, Median
  concentration at 1 h: 11.9 ng/mL
human, plasma, intravenous, 7 mg, 1 hr, read-out: Plasma concentration, Minimum
  concentration at 1 h: 8.68 ng/mL
human, plasma, intravenous, 7 mg, 1 hr, read-out: Plasma concentration, Q1
  concentration at 1 hr: 9.45 ng/mL
human, plasma, intravenous, 7 mg, 1 hr, read-out: Plasma concentration, Q3
  concentration at 1 h: 13.2 ng/mL
human, plasma, intravenous, 7 mg, 1.5 hr, read-out: Plasma concentration, Maximum
  concentration at 1.5 h: 17.6 ng/mL
human, plasma, intravenous, 7 mg, 1.5 hr, read-out: Plasma concentration, Mean
  concentration at 1.5 h: 13.1 ng/mL
human, plasma, intravenous, 7 mg, 1.5 hr, read-out: Plasma concentration, Median
  concentration at 1.5 h: 13 ng/mL
human, plasma, intravenous, 7 mg, 1.5 hr, read-out: Plasma concentration, Minimum
  concentration at 1.5 h: 8.96 ng/mL
human, plasma, intravenous, 7 mg, 1.5 hr, read-out: Plasma concentration, Q1
  concentration at 1.5 hr: 12 ng/mL
human, plasma, intravenous, 7 mg, 1.5 hr, read-out: Plasma concentration, Q3
  concentration at 1.5 h: 14 ng/mL
human, plasma, intravenous, 7 mg, 2 hr, read-out: Plasma concentration, Maximum
  concentration at 2 h: 18.5 ng/mL
human, plasma, intravenous, 7 mg, 2 hr, read-out: Plasma concentration, Mean
  concentration at 2 h: 14.8 ng/mL
human, plasma, intravenous, 7 mg, 2 hr, read-out: Plasma concentration, Median
  concentration at 2 h: 14.9 ng/mL
human, plasma, intravenous, 7 mg, 2 hr, read-out: Plasma concentration, Minimum
  concentration at 2 h: 10.9 ng/mL
human, plasma, intravenous, 7 mg, 2 hr, read-out: Plasma concentration, Q1
  concentration at 2 hr: 12.8 ng/mL
human, plasma, intravenous, 7 mg, 2 hr, read-out: Plasma concentration, Q3
  concentration at 2 h: 16.5 ng/mL
human, plasma, intravenous, 7 mg, read-out: Plasma concentration, Maximum
  concentration at 3 h: 20.2 ng/mL
